Assay results from patent US7531505B2, “Compositions and methods for promoting attachment of cells of endothelial cell lineage to medical devices” (Affinergy, Inc., priority 2006, dated 2009).
Read-outs that look alike come from different tables or passages of the source. Values belong to the substance of their own block, whether it stands above or below them.

Experiments:
[1] = test system: human coronary endothelial cells, porcine coronary endothelial cells, and endothelial progenitor cells; test: FACS binding of biotin-tagged peptides to cells of endothelial cell lineage in whole blood; type: cell-based, human or Porcine
Experimental: Several of the endothelial-binding domains listed in Table 3 with desirable binding specificities (e.g., SEQ ID NOs: 9-18, 23-28, 30-32, and 35) were further characterized for binding to various cell types in whole blood by FACS, by synthesizing the peptides with a C-terminal biotin tag. Cells were harvested from cell culture flasks using trypsin/EDTA. The cells were neutralized with complete (serum-containing) media and allowed to recover at 37° C. for at least 20 minutes. Each cell type was labeled with its corresponding antibody, as set forth in Table 4, below, and incubated for 20 minutes at room temperature.
The antibody-labeled cells were rinsed twice by centrifugation using washing buffer (HBSS+1% BSA+0.1% sodium azide, sterile-filtered). One hundred (100) μL of whole blood was aliquotted into each well of a deep-well polypropylene plate. Peptides were added to each well to achieve the desired peptide concentration. Minimal volumes of cells (typically 10 μL of cells or approximately 50,000 cells) were added to each well. […] The samples were transferred to an analysis plate and analyzed for cell binding using FACS. In the analysis, controls for each cell type (with relevant antibody as per Table 4, but containing no peptide) were used to assess background fluorescence. […]

[2] = test system: cells of endothelial cell lineage; test: Additional assays characterizing binding specificity of endothelial-binding domains (EC50); type: cell-based; details: read-out: EC50 of endothelial-binding domain
Text: In some embodiments, a binding domain that binds specifically to a particular surface, material or composition binds at least 10%, 20%, 30%, 40%, 50%, 60%, 70%, 80%, 90%, 100%, 200%, 300%, 400%, 500%, or a higher percentage, than the binding domain binds to an appropriate control such as, for example, a different material or surface, or a protein typically used for such comparisons such as bovine serum albumin. For example, binding specificity can determined by an assay in which quantitated is a signal (e.g., fluorescence, or colorimetric) representing the relative amount of binding between a peptide and target cells, as compared to peptide and non-target cells. […] In a preferred embodiment, the binding domain has binding specificity that is additionally characterized by an EC50 of 10 μM or less, and more preferably less than 1 μM. The EC50 can be determined using any number of methods known in the art, such as by generating a concentration response curve from a binding assay in which the concentration of the peptide is titered with a known amount of material or cells for which the peptide has binding specificity (see, for example, methods described in Examples 2 and 3 herein). In such case, the EC50 represents the concentration of peptide producing 50% of the maximal binding observed for that peptide in the assay. […]

[3] = ELISA of relative binding strength of biotin-tagged peptides to stainless steel stents
Experimental: As a specific illustrative example, nonspecific binding sites in wells containing stainless steel stent material in polystyrene microtiter plates were blocked with a buffer containing 1% bovine serum albumin for 2 hours at room temperature. The wells and stainless steel stent material were then washed three times with PBS-T. The plate was incubated for 1 hour at room temperature with shaking at 50 rpm. Each of 17 different phage display libraries was diluted in PBS+1% BSA and was added at a concentration of 10^10 pfu/ml in a total volume of 250 μl. After a 1 hour incubation at room temperature with shaking at 50 rpm, 70 μl of bovine serum was added, and then the plates were incubated at 37° C. with shaking for 1 hour. Unbound phage were removed by washing 3 time with 300 μl of PBS-T. After the final wash, phage bound to stents were used to infect E. coli cells. The infected cells were incubated in 96 deep-well plates, containing 1 ml of growth medium (e.g., 2xYT+5 μg/ml tetracycline) per well, at 37° C. overnight with shaking. Amplified phage-containing supernatant from each well was harvested by centrifugation. Second, third, and fourth rounds of selection were performed in a similar manner to that of the first round, using 150 μl of amplified phage supernatant from the previous round as input, and diluted with 150 μl of PBS-T+1% BSA. From the fourth round of selection, 340 individual clonal phage were then isolated and tested by plating out dilutions of phage pools to obtain single plaques. To detect phage that specifically bound to a metal such as stainless steel, conventional ELISAs were performed using an anti-M13 phage antibody conjugated to horseradish-peroxidase, followed by the addition of chromogenic agent ABTS (2,2′-azinobis(3-ethylbenzthiazoline-6-sulfonic acid). Relative binding strengths of the phage were determined by testing serial dilutions of the phage for binding to stainless steel in an ELISA, using an anti-M13 phage antibody conjugated to horseradish-peroxidase, followed by the addition of chromogenic agent ABTS, and measuring the absorbance at 405 nm. In the ELISA for determining relative binding strengths, the phage titrations were done in either buffer alone, or buffer containing 20% whole blood. The DNA sequence encoding peptides that specifically bound a metallic surface was determined.
Therefore, to determine if the binding specificity for stainless steel is primarily due to the amino acids in the C-terminal half of the amino acid sequence, or if the N-terminal region also impacts binding, peptides consisting essentially of amino acid sequences illustrated as SEQ ID NO:3 and SEQ ID NO:4 were synthesized. The peptides, as listed in Table 2 as SEQ ID NOs: 1, 3, and 4 were each synthesized with a biotin tag, and then assayed for relative binding strengths by ELISA using similar methods as that used for determining the relative binding strengths of phage displaying the peptides (as previously described herein). In this assay, serial dilutions (ranging from 0 μM to 10 μM) of each of the peptides were incubated with the stainless steel stents, washed with PBS-T, and relative binding specificity was quantitated by detecting the colorometric signal resulting from the reaction of streptavidin-alkaline phosphatase (the streptavidin portion binding to the biotin-labeled peptides) with chromogenic substrate. The EC50 was determined from the titration curve. […]

[4] = ELISA of relative binding strength in buffers from pH 2 to pH 12; details: peptide 1 μM, buffers pH 2 to pH 12
Experimental: For determining the effect of pH on binding specificity, the assay for determining relative binding strengths (by ELISA) was performed in the presence of different buffers, varying in pH in a range of from pH 2 to pH 12. For example, a buffer containing glycine and water was adjusted to pH2 using HCl; an acetate buffer was adjusted to pH 4.0 (ionic strength of about 0.001 M); a phosphate buffer (NaH2PO4) was adjusted to pH 6.0 (ionic strength of about 0.012M); a phosphate buffer (NaH2PO4) was adjusted to pH 7.0 (ionic strength of about 0.019M); a tris buffer was adjusted to pH 8.0 (ionic strength of about 0.006M); an ethanolamine buffer was adjusted to pH 10.0 (ionic strength of about 0.003M); and a phosphate buffer (NaH2PO4) was adjusted to pH 12.0 (ionic strength of about 0.044M). The final concentration of each peptide in this assay was 1 μM. Tested in this assay were surface-binding domains comprising a peptide consisting essentially of the amino acid sequence illustrated as SEQ ID NO:3, and the multimers thereof (divalent version (SEQ ID NO:7) and tetravalent version (SEQ ID NO:8)).

endothelial cells = test: Adherence of endothelial cells to coated stainless steel disks (luminescent ATP read-out); type: cell-based; details: coating at 10 μM for 1 hour; 25,000 endothelial cells, 10% bovine serum, 15 minutes; controls uncoated, SEQ ID NO:3 or irrelevant peptide
Experimental: The biofunctional coating composition comprising an amino acid sequence illustrated as SEQ ID NO:47 was then tested for its ability to selectively adhere cells of endothelial cell lineage to a metallic surface of a medical device. In this example, stainless steel disks were used to represent a metallic surface of a medical device. The disks were contacted with a buffered solution containing the biofunctional coating composition at a concentration of 10 μM for 1 hour at room temperature. As controls for non-specific binding, disks were either uncoated, or coated with the surface-binding domain comprising a peptide consisting essentially of an amino acid sequence of SEQ ID NO:3, or an irrelevant peptide (having no known binding specificity for metal or stainless steel or endothelial cells). The disks were washed with PBS, and then 25,000 endothelial cells were added in cell media containing 10% bovine serum, and incubated at room temperature for 15 minutes. The disks were washed in PBS, and the cells were then quantitated using a commercial luminescent cell viability assay system that measures intracellular ATP using a luminescent read-out. The luminescence was detected using a plate reader.

[5] = biotin-tagged peptide, serial dilutions 0 μM to 10 μM, stainless steel stents, read-out: EC50 expressed in nanomoles

Substance: AGSSSSVSFVAAAGSAV [SEQ ID NO:14]
- binding preference between endothelial progenitor cells and endothelial cells [1]: prefer binding to endothelial progenitor cells as compared to endothelial cells

- EC50 [2]: < 10000 nM
Substance: FYGEVGYVGASLYAGGAS [SEQ ID NO:19]

- EC50 [3, 5]: < 250 nM
Substance: NHTISKNHKKKNKNSNKTR [SEQ ID NO:4]

Substance: SEQ ID NO:7 (SSHRTNHKKNNPKKKNKTRGSSHRTNHKKNNPKKKNKTRG)
- optimum pH for binding [4]: 7.0 pH

- EC50 [3, 5]: < 250 nM
Substance: SGVVDAGVVAEDGVSGEASRSSHRTNHKKNNPKKKNKTR [SEQ ID NO:1]

Substance: SSFYGEVGYVGASLYAGGASSRG-PEG-SSHRTNHKKNNPKKKNKTRG [SEQ ID NO:47]
- number of endothelial cells bound to coated stainless steel disks compared with controls (endothelial cells): several fold increase

- optimum pH for binding [4]: 7.0 pH
- EC50 [3, 5]: < 50 nM
- effect of ethylene oxide sterilization on relative binding specificity for stainless steel ([3]; ethylene oxide 642 mg/L for 2 hours, compared with unsterilized peptide): minimal to no effect
- EC50 ([3]; peptide subjected to ethylene oxide sterilization (642 mg/L for 2 hours), read-out: EC50 for binding to stainless steel after ethylene oxide sterilization): < 50 nM
Substance: SSHRTNHKKNNPKKKNKTR [SEQ ID NO:3]

Substance: VVFAASGVAADAGWSVS [SEQ ID NO:32]
- binding preference between endothelial progenitor cells and endothelial cells [1]: preference for binding endothelial cells
